Laboratory results as given in the NIST ThermoML archive (doi:10.1007/s10765-010-0737-5).

Tests used:
[1] = Liquid; for viscosity: 101 kPa, Capillary tube (Ostwald / Ubbelohde) method; for mass density: 101.3 kPa
[2] = xn = mol fraction of the nth substance listed; details: Liquid, x2 = 0; for viscosity: 101 kPa, Capillary tube (Ostwald / Ubbelohde) method; for mass density: 101.3 kPa

CC(C)CCl [1-chloro-2-methylpropane]
[1]
Details	mass density [kg/m3]	viscosity [mPa·s]
283.15 K	888.845	0.5155
288.15 K	883.211	0.4833
293.15 K	877.539	0.454
298.15 K	871.533	0.4296
303.15 K	866.096	0.4112
308.15 K	860.319	0.3921
313.15 K	853.902	0.3726

CCCCCl [1-chlorobutane]
[1]
Details	mass density [kg/m3]	viscosity [mPa·s]
283.15 K	897.339	0.4993
288.15 K	891.855	0.4701
293.15 K	886.335	0.4433
298.15 K	880.705	0.4214
303.15 K	875.204	0.405
308.15 K	869.585	0.3885
313.15 K	863.882	0.3642

CC(C)(C)Cl [2-chloro-2-methylpropane]
[1]
Details	mass density [kg/m3]	viscosity [mPa·s]
283.15 K	855.249	0.598
288.15 K	849.243	0.5538
293.15 K	843.191	0.5135
298.15 K	837.096	0.4768
303.15 K	830.958	0.4438
308.15 K	824.772	0.4196
313.15 K	818.536	0.3904

CCC(C)Cl (stereo unspecified) [2-chlorobutane]
[1]
Details	mass density [kg/m3]	viscosity [mPa·s]
283.15 K	884.34	0.4631
288.15 K	878.756	0.4365
293.15 K	873.13	0.4167
298.15 K	867.474	0.3993
303.15 K	861.779	0.38
308.15 K	856.044	0.3615
313.15 K	850.266	0.3443

CC(C)OC(C)C [diisopropyl ether]
[1]
Details	mass density [kg/m3]	viscosity [mPa·s]
283.15 K	733.833	0.3646
288.15 K	728.692	0.3486
293.15 K	723.509	0.334
298.15 K	718.289	0.3178
303.15 K	713.032	0.3001
308.15 K	707.727	0.2857
313.15 K	702.378	0.2723

CC(C)OC(C)C [diisopropyl ether] + CC(C)(C)Cl
[2]
Details	mass density [kg/m3]	viscosity [mPa·s]
283.15 K	733.833	0.3646
288.15 K	728.692	0.3486
293.15 K	723.509	0.334
298.15 K	718.289	0.3178
303.15 K	713.032	0.3001
308.15 K	707.727	0.2857
313.15 K	702.378	0.2723

CC(C)OC(C)C [diisopropyl ether] + CC(C)CCl
[2]
Details	mass density [kg/m3]	viscosity [mPa·s]
283.15 K	733.833	0.3646
288.15 K	728.692	0.3486
293.15 K	723.509	0.334
298.15 K	718.289	0.3178
303.15 K	713.032	0.3001
308.15 K	707.727	0.2857
313.15 K	702.378	0.2723

CC(C)OC(C)C [diisopropyl ether] + CCC(C)Cl
[2]
Details	mass density [kg/m3]	viscosity [mPa·s]
283.15 K	733.833	0.3646
288.15 K	728.692	0.3486
293.15 K	723.509	0.334
298.15 K	718.289	0.3178
303.15 K	713.032	0.3001
308.15 K	707.727	0.2857
313.15 K	702.378	0.2723

CC(C)OC(C)C [diisopropyl ether] + CCCCCl
[2]
Details	mass density [kg/m3]	viscosity [mPa·s]
283.15 K	733.833	0.3646
288.15 K	728.692	0.3486
293.15 K	723.509	0.334
298.15 K	718.289	0.3178
303.15 K	713.032	0.3001
308.15 K	707.727	0.2857
313.15 K	702.378	0.2723
